Experiments:
Type in all cases: cell-based
[1] = test system: black mold; experiment: “Mold” procedure, black mold; settings: after 4 hours in blue cheese brine; Table 20; inoculum 2.5 × 10^4 (est)
Method: (§1) In the present example, cultures of various microorganisms native to actual process brines used in cheese manufacture were obtained from a cheese plant. The cultures of yeast, mold, and coliforms were grown and used to test the efficacy of various antimicrobial additives in blue cheese brines. Organism cultures included four different types of yeast (three distinct while yeast cultures and a pink yeast), a black mold culture, a coliform culture, a culture of mixed green mold and yeast that were not separated, and a culture that was identified by the cheese plant as heterofermentative lactic acid bacteria, although no actual identification of the strain was carried out.
(§2) “Mold” Procedure: • 1. From refrigerated stock mold cultures, take 1 ml from black mold dilution bottle added to 99 ml of cold Butterfield's Phosphate Buffered Water (PBW) to obtain 10^5 cfu/ml. • 2. Take 1 ml from green mold/white yeast mixture dilution bottle added to 99 ml of cold Butterfield's Phosphate Buffered Water (PBW) to obtain 10^6 cfu/ml. • 3. Plate serial dilutions of the cultures to get the starting count of the inoculum on Dichloran-Rose Bengal-Chloramphenicol Agar (DRBC). • 4. Add 1 ml of the diluted mold culture to 100 ml of cold test solution (do separately for each of the two mold cultures). • 5. Determine the population at time 0 and 4 hours. Spread plate serial dilutions to DRBC agar. • 6. Incubate the test solutions at 10° C.+/−2° C. for the duration of the experiment. • 7. Incubate the plates at 20° C.+/−2° C. for 5 days+/−2 hours. • 8. Count representative colonies and multiply by the dilution factor. Note: For black mold, each test solution should contain ˜10^3 cfu/ml. For green mold/white yeast mixture, each test solution should contain ˜10^4 cfu/ml.

[2] = test system: Pink Yeast; experiment: Yeast challenge, pink yeast
Method: (§3) “Yeast” Procedure: • 1. Inoculate a separate tube containing 10 ml of Brain Heart Infusion (BHI) broth for each wild type (Raised, Rough and Flat white yeast along with a single pink yeast). Incubate for 5 days at 26° C.+/−2° C. • 2. Assume growth to be 10^7 cfu/ml. Since 4 cultures are being used, combine 2.75 ml of each culture added to 99 ml of cold Butterfield's Phosphate Buffered Water (PBW) to obtain 10^6 cfu/ml of yeast cocktail. • 3. Plate serial dilutions of the culture to get the starting count of the inoculum on Dichloran-Rose Bengal-Chloramphenicol Agar (DRBC). • 4. Add 1 ml of the diluted cocktail to 100 ml of cold test solution. • 5. Determine the population at time 0 and 4 hours. Spread plate serial dilutions to DRBC agar. • 6. Incubate the test solutions at 10° C.+/−2° C. for the duration of the experiment. • 7. Incubate the plates at 20° C.+/−2° C. for 5 days+/−2 hours. • 8. Count representative colonies and multiply by the dilution factor. Note: Each test solution should contain ˜10^4 cfu/ml.
(§4) In order to determine if the effect of the additive was repeatable, more challenge tests were run on samples of process brine. […] In this test the solutions were challenged with two distinct yeast (a white and a pink) types and coliforms from the samples sent by the cheese plant.

[3] = test system: heterofermentative lactic acid bacteria (not identified); experiment: “Lactic Bacteria” procedure in cheese brine; settings: after 4 hours in blue cheese brine; Table 20; inoculum 1.2 × 10^7 (est)
Method: as §1
“Lactic Bacteria” Procedure: • 1. Inoculate a separate tube containing 10 ml of Brain Heart Infusion (BHI) broth for each wild type tactics 1 and 2. Incubate for 72+/−2 hours at 30° C.+/−2° C. • 2. Assume growth to be 10^9 cfu/ml. Since two cultures are being used, combine 5.5 ml of each culture added to 99 ml of cold Butterfield's Phosphate Buffered Water (PBW) to obtain 10^8 cfu/ml. • 3. Plate serial dilutions of the culture to get the starting count of the inoculum on Lactobacilli MRS Agar (MRSA). • 4. Add 1 ml of the diluted cocktail to 100 ml of cold test solution. • 5. Determine the population at time 0 and 4 hours. Plate serial dilutions using MRSA spread plates. • 6. Incubate the test solutions at 10° C.+/−2° C. for the duration of the experiment. • 7. Incubate the plates at 30° C.+/−2° C. for 72+/−2 hours. • 8. Count representative colonies and multiply by the dilution factor. Note: Each test solution should contain ˜10^8 cfu/ml.
In this experiment solutions were challenged with cultures of the black mold, the green mold/yeast combination, and the bacteria thought to be “lactic acid” bacteria. In this experiment, a brine control with no additive was neglected, but the data still indicate the strong effectiveness of the octanoic acid against yeast and mold.

[4] = test system: green mold/white yeast mixture; experiment: “Mold” procedure, green mold/white yeast mixture; settings: for Green Mold + Yeast count: after 4 hours in blue cheese brine, Table 20, inoculum 5.8 × 10^6 (est)
Method: as §1, §2
Screening tests identified octanoic acid as a promising antimicrobial additive for salt brines. Table 16 gives results of a challenge test run on actual blue cheese and mozzarella process brine samples sent from a cheese plant. The brines were treated with different concentrations of octanoic acid and then challenged with a yeast cocktail (which included the pink and 3 different white mold types), the green mold+yeast combination, and coliforms. […] The plate counts listed parenthetically as (est) were too numerous to count and were estimated.

[5] = test system: White Yeast; experiment: Yeast challenge, white yeast
Method: as §3, §4

[6] = test system: wild type coliforms from cheese plant brine; experiment: Coliforms procedure in cheese brine or buffered solution; settings: for Coliforms count: Table 21 (sodium octanoate experiment)
Method: as §1
Coliforms Procedure: • 1. Inoculate a separate tube containing 10 ml of Brain Heart Infusion (BHI) broth for each wild type coliforms 1 and 2. Incubate for 24+/−2 hours at 35° C.+/−2° C. • 2. Assume growth to be 10^9 cfu/ml. Since two cultures are being used, combine 5.5 ml of each culture added to 99 ml of cold Butterfield's Phosphate Buffered Water (PBW) to obtain 10^8 cfu/ml. • 3. Plate serial ten-fold dilutions of the culture to get the starting count of the inoculum on Violet Red Bile Agar (VRBA). • 4. Add 1 ml of the diluted cocktail to 100 ml of cold test solution. • 5. Determine the population at time 0 and 4 hours by plating serial dilutions to VRBA spread plates. • 6. Incubate the test solutions at 10° C.+/−2° C. for the duration of the experiment. • 7. Incubate the plates at 20° C.+/−2° C. for 72+/−2 hours. • 8. Count representative colonies and multiply by the dilution factor. Note: Each test solution should contain ˜10^8 cfu/ml.
(§5) The brines were treated with different concentrations of octanoic acid and then challenged with a yeast cocktail (which included the pink and 3 different white mold types), the green mold+yeast combination, and coliforms.

[7] = test system: wild type coliforms from cheese plant brine; experiment: as above; settings: after 4 hours in mozzarella cheese brine
[8] = test system: yeast cocktail (Raised, Rough and Flat white yeast and a pink yeast); experiment: “Yeast” procedure, yeast cocktail
Text: as §1, with “The cultures of yeast, mold, and coliforms were grown and used to test the efficacy of various antimicrobial additives in blue cheese brines.” left out
as §3, §5

[9] = test system: Uncharacterized microorganisms cultured from raw ground beef; experiment: Total plate count challenge of 24% NaCl brine with ground beef organisms; settings: after 4 hours in 24% NaCl brine at −5° C.
Method: Tests were run to determine the effectiveness of formulas against organisms other than L. monocytogenes. […] The test solutions were inoculated with the ground beef organism culture and incubated for 4 hours at −5° C. before plating.

[10] = after 4 hours in blue cheese brine, Table 21 (sodium octanoate experiment)
[11] = after 4 hours in blue cheese brine
[12] = after 4 hours in blue cheese brine, Table 18
[13] = after 4 hours in mozzarella cheese brine, Table 19
[14] = Table 17, (est) = too numerous to count, estimated
[15] = after 4 hours at 10° C. in blue cheese brine, Table 16
[16] = after 4 hours in mozzarella cheese brine, Table 17

Row | Compound | Black Mold count [1] [cfu/mL] | Pink Yeast count [2, 10] [cfu/mL] | “Lactics” count [3] | Green Mold + Yeast count [4] | White Yeast count [5, 10] [cfu/mL] | Coliforms count [6, 11] | Pink Yeast count [2, 12] [cfu/mL] | Pink Yeast count [2, 13] [cfu/mL] | Coliform count [7, 14] | Coliform count ([7]; Table 19) | Yeast + Mold count [4, 15] [cfu/mL] | Yeast + Mold count [4, 16] | White Yeast count [5, 12] [cfu/mL] | White Yeast count [5, 13] [cfu/mL] | Yeast Cocktail count [8, 15] [cfu/mL] | Yeast Cocktail count [8, 16] | Coliform count [6, 15] [cfu/mL] | Coliform count [6, 12] [cfu/mL] | Total plate count [9]
1 | CCCCCCCC(=O)O [62.5 ppm octanoic acid, octanoic acid] | <10 | <10 | 1.5 × 10^5 cfu/mL | 1.0 × 10^4 cfu/mL | 90 | 3.8 × 10^4 cfu/mL | – | – | – | – | – | – | – | – | – | – | – | – | –
2 | CCCCCCCC(=O)O [125 ppm octanoic acid, octanoic acid] | <10 | <10 | 2.0 × 10^3 cfu/mL | <10 cfu/mL | <10 | <10 cfu/mL | <10 | <10 | ~3.0 × 10^6 (est) cfu/mL | 1.6 × 10^4 cfu/mL | 20 | 4.1 × 10^5 cfu/mL | <10 | 60 | <10 | 6.0 × 10^3 cfu/mL | 10 | <10 | –
3 | CCCCCCCC(=O)O [250 ppm octanoic acid, octanoic acid] | <10 | <10 | <10 cfu/mL | <10 cfu/mL | <10 | <10 cfu/mL | <10 | <10 | 1.7 × 10^6 cfu/mL | 3.8 × 10^3 cfu/mL | <10 | 6.1 × 10^4 cfu/mL | <10 | <10 | <10 | 200 cfu/mL | <10 | <10 | –
4 | CCCCCCCC(=O)O [500 ppm octanoic acid, octanoic acid] | <10 | <10 | <1 cfu/mL | <10 cfu/mL | <10 | <10 cfu/mL | <10 | 20 | 3.5 × 10^4 cfu/mL | 3.8 × 10^3 cfu/mL | <10 | 5.6 × 10^3 cfu/mL | <10 | <10 | <10 | <10 cfu/mL | <10 | <10 | –
5 | sodium salt of sulfonated oleic acid | – | – | – | – | – | – | – | – | – | – | – | – | – | – | – | – | – | – | 5.2 × 10^3 cfu/mL
